Laboratory results from ChEMBL document CHEMBL3507680, “University of Dundee, Gates Library screen for HepG2 cell viability”.

Assay: Human HepG2 cell viability assay in 384 well format
Assay type: toxicity, cell-based
Parameters: dose 125 nL, time 70.5 hour; cytotoxicity at 70.5 h: concentration not given beside the values
Details: HepG2 cells, read-out: Inhibition

Row | SMILES | cytotoxicity at 70.5 h [%]
1 | Cc1ccc(CN2C[C@@H]3CN(C(=O)c4cccn4C)C[C@@H]3C2)cc1 | -3.66
2 | O=C(C[S+]([O-])Cc1ccc(F)cc1Cl)N1CCc2sccc2C1 (stereo not drawn) | -6.4
3 | Cc1nc(CN2CCC(CNC(=O)Nc3ccccc3)CC2)oc1C | -6.72
4 | CCCOCCCNc1nccc(-c2cn(C)nc2C)n1 | -4.32
5 | CCS(=O)(=O)Nc1cnn(Cc2cccc(F)c2)c1 | -4.79
6 | CCN1CCN(C(=O)COCc2cccc(OC)c2)CC1 | -6.27
7 | Cc1c(C(=O)NCC(C)C)nnn1-c1cccc2c1CCN(C)C2 | 1.85
8 | CC(C)c1noc(CCCC(=O)N2CCN(Cc3ccsc3)CC2)n1 | -6.21
9 | O=C(NCCn1ccnc1)c1ccn(-c2ccc(F)cc2)n1 | -2.38
10 | CN(C)CCO[C@@H]1CC[C@H]2[C@H]1OCCN2C(=O)COc1ccccc1 | -16.3
11 | CO[C@H]1COCCN(Cc2c[nH]c3ccccc23)C1 | -4
12 | CC(C)(C)c1ccc(-c2n[nH]c3c2CN(CC2CCOC2)CC3)cc1 (stereo not drawn) | -12
13 | CN(C)c1nc(N)nc(CN2CCC(c3nc4ccccc4o3)CC2)n1 | -7.79
14 | CC(SCCNS(=O)(=O)c1cnn(C)c1)c1cccs1 (stereo not drawn) | -4.4
15 | CC(C)NC(=O)COc1nc(C(C)C)no1 | 18
16 | c1ncn(CC2CCCN(CC3CCCCC3)C2)n1 (stereo not drawn) | -7.32
17 | O=C(CN1CCCC1)N1CCCC(c2cc(=O)n3c(n2)CCCCC3)C1 (stereo not drawn) | 2.75
18 | N#Cc1cccnc1N1CCCC(CO)(CCOc2ccccc2)C1 (stereo not drawn) | -7.83
19 | COc1cc(C(=O)N(CCC#N)Cc2ccccn2)ccc1C | 2.05
20 | O=C(CCNc1ncccn1)NCCOc1ccc2c(c1)CCC2 | -16.3
21 | O=S(=O)(c1ccccc1F)N1CCCC(c2nccs2)C1 (stereo not drawn) | -1.24
22 | CN(Cc1ccccc1CN1CCCC1)c1ncnc2[nH]ccc12 | -4.3
23 | Cc1ccccc1CN(C)C(=O)c1cc(C2CCCN2C)ccn1 (stereo not drawn) | 10.5

Row | SMILES | cytotoxicity at 70.5 h [%]
24 | Cc1nc(C)n(CC2CN(Cc3cccc(OC(C)C)c3)CCO2)n1 (stereo not drawn) | -10.6
25 | CN(C)C(=O)N1CCc2c(COCC3CC3)cncc2C1 | -4.34
26 | COc1cc(C2SCC(=O)Nc3n[nH]cc32)cc(OC)c1O (stereo not drawn) | -19.7
27 | c1cnnc(N2CCCC2CNc2ncnc3ccccc23)c1 (stereo not drawn) | 11.3
28 | O=C(N1CCOCC1)N1CCc2ncnc(NC3CC3)c2CC1 | 21
29 | Cc1ccc(OCC(=O)NCc2ccco2)nc1 | -2.92
30 | CCN(Cc1cccc(C)c1)Cc1nc2c(cnn2C)c(=O)[nH]1 | -2.57
31 | Cn1c2c(c(=O)n1C)CN(C(=O)c1ccsc1)CCC2 | -0.418
32 | c1cncc(C[C@H]2[C@H](N3CCOCC3)CCN2Cc2cccs2)c1 | -5.01
33 | Cc1nc2c(c(C)c1CC(=O)Nc1cccc(C#N)c1)c(=O)[nH]n2C | 15.2
34 | COc1cccc(N2CCC(CNc3cc(C)nc4ncnn34)C2)c1 (stereo not drawn) | -1.68
35 | Cc1csc([C@@H]2C[C@@H]3CCN(C(=O)c4cnccn4)C[C@H]3O2)n1 | -4.76
36 | Cc1noc(C)c1CS(=O)(=O)Cc1nc(C2CC2)no1 | -0.106
37 | Cn1cc(-c2nnn3c2COC(CNC(=O)c2cccs2)C3)cn1 (stereo not drawn) | 22.3
38 | CC(C)c1nc2n(n1)CC(NCCc1cccs1)CC2 (stereo not drawn) | -5.42
39 | Cn1ncc2c(N3CCC(F)(F)CC3)nc(-c3ccncc3)nc21 | -13.7
40 | CCN1CC2(CCN(Cc3nc(CSC)no3)CC2)CC1=O | 23.5
41 | CC1CCN(C(=O)C(C)n2cc(Br)cn2)CC1 (stereo not drawn) | -3.34
42 | COc1cc(-c2cc(N)ncn2)cc(OC)c1OC | -6.28
43 | CC(Nc1cccc(CN2CCOC2=O)c1)C(=O)NC(=O)NC(C)(C)C (stereo not drawn) | -16.7
44 | Cc1ccc(CN2CC[C@H]3[C@H]2CC(=O)N3c2cccnc2)o1 | 8.92
45 | CCn1nc(C)c(CCNC(=O)c2cccc(-n3cccn3)c2)c1C | -3.23
46 | NC(=O)CN1CCC(C(=O)NCc2ccc3c(c2)OCCCO3)CC1 | -8.05

Row | SMILES | cytotoxicity at 70.5 h [%]
47 | CC1CC2(CCN(C(=O)c3c[nH]cn3)CC2)c2ccccc21 (stereo not drawn) | -8.21
48 | COCc1ccc(C(=O)N2CCN(CC=C(C)C)[C@@H]3CS(=O)(=O)C[C@@H]32)o1 | -0.472
49 | CNC(=O)CN1CCOCC12CCN(C(=O)c1ccc(C)cc1)CC2 | -6.86
50 | Cc1nn(-c2cc(Cl)cc(Cl)c2)c(C)c1CCC(=O)O | -5.45
51 | COCCCOc1ccc(C(=O)N(C)Cc2cccc(O)c2)cn1 | -8.37
52 | Cc1nccn1CC1CCN(C(=O)Cc2ccccc2)CC1 | 24.1
53 | C=C(C)COc1cccc(C(=O)NCCCc2nnn[nH]2)c1 | -12.4
54 | Cc1cc(CC(C)Nc2ncc(C)c(N(C)C)n2)[nH]n1 (stereo not drawn) | -1.49
55 | COC(=O)C1CCCN1C(=O)c1ccc(Cl)cc1F (stereo not drawn) | -2.57
56 | O=C(NC[C@H]1OC[C@@H](NC2CCCCC2)[C@@H]1O)Nc1ccccc1 | 15.8
57 | CCOc1cccc(C(C(=O)O)N(C)Cc2cc(C)no2)c1 (stereo not drawn) | -9.85
58 | CCOc1cccc(NS(=O)(=O)c2cc(C)c(C(=O)O)s2)c1 | 8.89
59 | CC(C)(C)c1oc(C(N)=O)cc1CN1CCCCC(N)C1 (stereo not drawn) | -7.89
60 | Cc1ccc2oc(CN3CCn4nc(CCC(=O)O)cc4C3)c(C)c2c1 | 32
61 | Cc1cc(I)cnc1NC(=O)C(C)(C)C | 5.65
62 | CCCc1n[nH]c(C2CN(C(=O)c3cc(F)ccc3OC)CCO2)n1 (stereo not drawn) | -23.2
63 | CC1CN(C)c2ccccc2CN1C(=O)c1ccc[nH]1 (stereo not drawn) | 0.885
64 | CC1c2ncc(COc3cccnc3)n2CCN1C(=O)C1=CCCCC1 (stereo not drawn) | -14.2
65 | O=C(C1CCOC1)N1CCC2(CC1)Cc1ccccc1CNC2=O (stereo not drawn) | -9.03
66 | Cc1ccc(C(=O)NCCCNS(C)(=O)=O)c(=O)[nH]1 | -3.31
67 | OC1CN(Cc2ccccc2)CCN(c2ccncc2)C1 (stereo not drawn) | 11.5
68 | Cc1cc(C(=O)NCCn2nc3ccccn3c2=O)[nH]n1 | -13.9
69 | Cc1ncsc1-c1nnc(C2CCN(Cc3ccccc3)CC2)o1 | -1.36

Row | SMILES | cytotoxicity at 70.5 h [%]
70 | CSc1ccc(CNC(=O)C2CC(=O)N(C(C)(C)C)C2)cc1 (stereo not drawn) | -3.39
71 | O=C(Cc1c(F)cccc1Cl)Nc1cc(N2CCOCC2)ncn1 | 9.04
72 | CCC(C)(COc1ncccc1Cl)NCC(=O)NCC(C)C (stereo not drawn) | -30.2
73 | CC(C)S(=O)(=O)CC(=O)N1CCCC(n2ccnc2)C1 (stereo not drawn) | -0.47
74 | Cc1ccc2nc(CN3CCCCC3CCn3cccn3)cn2c1 (stereo not drawn) | 6.68
75 | Cc1nc(CN2CCN(c3cncc(Cl)n3)CC2)no1 | -9.09
76 | CC(C)Cc1nc(CCn2cncn2)n(-c2ccc3c(c2)OCCO3)n1 | -18
77 | Fc1ccc(-c2nc(CN3CCCCC3Cn3cncn3)co2)cc1 (stereo not drawn) | -3.61
78 | Cc1cc(C(=O)NCC2(N(C)C)CCCC2)c(C)n1-c1cccnc1 | -0.689
79 | O=C(O)c1cc2c(nc1O)CC(c1cccc(Cl)c1)CC2=O (stereo not drawn) | -2.93
80 | CCCn1cc(NC(=O)Nc2ccc(F)c(C(=O)NC)c2)cn1 | -4.76
81 | COCCN1CC(O)CN(C(=O)c2cccc(C(F)(F)F)c2)CC1=O (stereo not drawn) | -0.767
82 | O=c1cc(N2CCCCC2)cnn1Cc1noc(C2CCCO2)n1 (stereo not drawn) | -10.8
83 | CC(C)(C)n1ncc2c1CCCC2NCc1ccsc1 (stereo not drawn) | -0.727
84 | O=C(CCN1C(=O)CCC1=O)Nc1cnn(-c2ccccc2Cl)c1 | 10
85 | C[C@@H]1C[C@H]2CN(C(=O)C3=CCCC3)C[C@H]2O1 | -4.11
86 | CCN1CC(C(=O)N2CC(Oc3ccccc3Cl)C2)CC1=O (stereo not drawn) | -1.71
87 | COCCC(=O)NCc1cccnc1-n1cnc2ccccc21 | 6.94
88 | CC(Cn1cncn1)NC(=O)NCC(C)(C)c1ccc(F)cc1 (stereo not drawn) | 1.47
89 | COc1nccc(N2CC[C@@H](N3CCC(O)CC3)[C@H](O)C2)c1C#N | 5.37
90 | Cc1ccc2c(c1)C1(CCN(C(N)=O)CC1)CN2C(=O)N(C)C | -7.46
91 | CCCN1CCCn2nc(CNS(=O)(=O)c3cccc(C#N)c3)cc2C1 | -12.6
92 | CSC1(CNc2ncc(Br)cn2)CCOCC1 | -0.0448

Row | SMILES | cytotoxicity at 70.5 h [%]
93 | CC1=Nc2c(c(=O)[nH]n2C2CCCC2)C(c2cccc(O)c2)S1 (stereo not drawn) | 3.38
94 | CCCn1nc(C)c(C(=O)N[C@@H]2CC[C@@H](N3CCCC3)[C@@H]2O)c1C | -6.2
95 | O=C(NC(Cc1ccsc1)c1nccs1)C1CC1 (stereo not drawn) | -6.11
96 | Cc1ccc(CNC(=O)CC2C(=O)NCCN2Cc2ccccc2C)s1 (stereo not drawn) | -0.0744
97 | Cc1noc([C@@]23CCO[C@@H]2CCN(Cc2scnc2C)C3)n1 | -13.1
98 | CCOc1ccc(NC(=O)N2CCNC(=O)C2)c(C(F)(F)F)c1 | 1.37
99 | CC(C)(C)c1cnc(CN2C(=O)CC3(CCSC3)C2=O)o1 (stereo not drawn) | -4.79
100 | Cc1nccn1C1CCCN(C(=O)c2ccc3cc[nH]c3c2)C1 (stereo not drawn) | -1.7
101 | N#Cc1cccc(CN2C(=O)c3ccccc3CS2(=O)=O)c1 | -2.45
102 | C=C(C)CSc1nnc(CCNC(=O)OC(C)(C)C)o1 | -12.3
103 | O=C(NCCCN1CCOCC1)c1ccn(COc2ccc(F)cc2)n1 | -6.88
104 | O=C(N[C@@H]1CCNC[C@H]1O)c1ccc(F)c(Cl)c1 | -7.9
105 | Cc1ccc(C)c2c(O)cc(CN[C@H]3CCCCNC3=O)nc12 | -6.91
106 | N#Cc1cc(S(N)(=O)=O)ccc1N1CCc2c(Cl)cccc2C1 | 42.5
107 | O=C(NCc1cccnc1)N1CCC2(CC(=O)N(c3ccsc3)C2)C1 (stereo not drawn) | -6.34
108 | O=C1CC[C@@H]2[C@@H](CCN2C(=O)c2ccsc2)N1CC1CC1 | -6.8
109 | CN(C)c1ncccc1CNCc1ccc(N2CCOCC2)cc1 | 18.9
110 | CC(Nc1ccc(N2C(=O)CCCC2=O)cc1)c1ccc(C#N)cc1 (stereo not drawn) | -6.87
111 | CN1CCN(C[C@@H]2CN(C(=O)NCC3CCCCC3)C[C@@H]2CO)CC1 | 27.6
112 | Cc1nc(C)c(C(=O)Nc2ccc(-c3nnc(N(C)C)o3)cc2)o1 | -4.93
113 | O=C(NCC1(Sc2ccccc2)CC1)c1c[nH]nn1 | -0.96
